The text below walks through data of paper PMC9687798, “Atypical Substrates of the Organic Cation Transporter 1” (Biomolecules, 2022).

“Also recorded” adds a separate entry of the source.

The target in one series is T1, OCT1 wild-type (Homo sapiens, UniProt O15245).
T1 construct: expressed in transfected cells
As to the kind of experiment: Inhibition of OCT1-mediated prostaglandin uptake by MPP+. The class given is cell-based. The note with it: 1 mM inhibitor, 100 µM prostaglandin. As for the experimental part:
(§1) Forty-eight hours before the transport experiments, 600,000 cells were plated on 12-well plates pre-coated with poly-D-lysine and incubated at 37 °C with 5% CO2. The prepared 12-well plate with cells was positioned on a heating plate pre-warmed to 37 °C. After removing the medium, the cells were washed with 37 °C HBSS+ (10 mM HEPES in Hank’s balanced salt solution, pH 7.4). Then, one pre-defined concentration of a substrate was added to each well. The incubation period was stopped by adding 2 mL of 4 °C HBSS+ and removing the cells from the heating plate. The cells were washed twice with 4 °C HBSS+. For cell lysis, the cells were incubated for 15 min with 500 µL of 80% acetonitrile (LGC Standards, Wesel, Germany), which contained a respective internal standard (Table 1).
Figure 8 Cellular uptake of prostaglandins by OCT1. Cellular uptake ratios were determined in HEK293 cells that were transfected stably with OCT1 or its variants that were incubated with 1 µM (light blue), 10 µM (medium blue), and 100 µM (dark blue) of prostaglandin E2 and F2α for 120 s. […] Statistical significance of the uptake ratio between OCT1 and its variants and between inhibited and not inhibited OCT1 was determined using an unpaired students t-test with * p < 0.05, ** p < 0.01, and *** p < 0.001.

The target in another series is T2, mutant human OCT1 D474N (Homo sapiens, UniProt O15245, D474N).
T2 construct: expressed in transfected cells
T2 sequence (O15245 1-554 D474N): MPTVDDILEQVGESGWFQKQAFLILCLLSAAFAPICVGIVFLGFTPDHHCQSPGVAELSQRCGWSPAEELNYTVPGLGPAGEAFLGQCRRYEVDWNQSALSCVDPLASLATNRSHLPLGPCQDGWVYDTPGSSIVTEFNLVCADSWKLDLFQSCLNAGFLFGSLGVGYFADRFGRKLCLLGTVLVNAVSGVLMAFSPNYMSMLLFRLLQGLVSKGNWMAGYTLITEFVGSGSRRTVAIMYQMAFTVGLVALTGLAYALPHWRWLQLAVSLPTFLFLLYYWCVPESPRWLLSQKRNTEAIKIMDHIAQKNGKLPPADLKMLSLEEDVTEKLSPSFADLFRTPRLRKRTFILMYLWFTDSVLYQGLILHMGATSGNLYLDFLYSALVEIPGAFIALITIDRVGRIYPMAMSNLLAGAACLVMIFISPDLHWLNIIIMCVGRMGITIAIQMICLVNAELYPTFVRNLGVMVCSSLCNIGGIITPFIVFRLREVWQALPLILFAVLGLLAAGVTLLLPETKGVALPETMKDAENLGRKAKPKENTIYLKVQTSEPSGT
As to the kind of experiment: Cellular uptake by HEK293 cells overexpressing variant OCT1 D474N. Format: cell-based. The note with it: 1, 10 and 100 µM, 120 s.

A further series relates to OCT1. The note with it: cited from earlier work.
The conditions of series [1]: no reference given; cited from earlier work.
A short description of series [2]: Concentration-dependent uptake into empty vector-transfected HEK293 cells. The note with it: human, empty vector (pcDNA5/FRT)-transfected HEK293 cells, pH 7.4; empty vector-transfected HEK cells; read-out: intrinsic clearance. The class given is cell-based, human. On the procedure: (§2) The transport experiments were performed using HEK293 cells that overexpress human OCT1*1 (wild-type), mutant human OCT1 D474N, variant human OCT1*2 (M420del) and OCT1*3 (R61C), wild-type human OCT2, and OCT3 after stable transfection. The wild-type cell lines of OCT1 and OCT2, as well as the variant cell lines OCT1*2 and *3, were generated using the Flp-In system (Thermo Fisher Scientific, Darmstadt, Germany) as described in previous publications. The cell line overexpressing OCT3 was a kind gift from Dr. Koepsell and Dr. Gorbulev (University of Würzburg, Germany). Cells transfected with the empty pcDNA5/FRT vector were used for the transport experiments as a control cell line. All cells were cultured approximately up to passage 30.
as §1
(§3) For time-dependent transport, the cells were incubated with 1 µM of the substance for 15 to 240 s to determine the linear uptake range ≥ 15 s. For concentration-dependent transport, the cells were incubated with defined substrate concentrations (0.1, 1, 10, 30, 100, 300, 600, 1000 µM) for the respective pre-defined incubation times. […]; 100 µM) and pre-defined incubation times. The uptake by a transporter was normalised to the uptake by empty vector-transfected cells. […] The results of transport experiments were normalized to the total protein concentration per well. Total protein quantification was performed using a bicinchoninic acid assay with bovine serum albumin as standard.
(§4) The ratios of cellular uptake were calculated by dividing the total uptake of transporter-overexpressing cells by the total uptake into empty vector transfected cells. The concentration-dependent cellular net uptake was used for analysis of transport kinetics by subtracting for each substrate concentration the uptake of empty vector-transfected cells from the uptake of transporter-overexpressing cells. The transport kinetic parameters Vmax and KM were determined with non-linear regression by using the Michaelis–Menten equation for net uptake data and by using the Michaelis–Menten equation extended with a linear term for total uptake data (GraphPad Prism 5.01, GraphPad software, LA Jolla, CA, USA). The intrinsic clearance Clint was expressed with the ratio of Vmax and KM.

For series [3], the system named is empty vector-transfected HEK cells. Described as above. The class given is cell-based, human. The following applies: uptake into empty vector-transfected cells. On the procedure: as §2, §1, §3, §4
The target in a further series is OCT1 (wild-type, OCT1*1) (Homo sapiens, UniProt O15245). The series can be described thus: Concentration-dependent uptake (transport kinetics) in HEK293 cells overexpressing OCT1 wild-type. The note with it: human, HEK293 cells stably overexpressing human OCT1*1 (wild-type), pH 7.4, KM (±SEM), net uptake (OCT1 minus empty vector), HEK293, 0.1-1000 µM substrate, Michaelis–Menten.

As to `CCCCC[C@H](O)/C=C/[C@H]1[C@H](O)CC(=O)[C@@H]1C/C=C\CCCC(=O)O` [Prostaglandin E2, prostaglandin E2], the “uptake by OCT1 wild-type with the inhibitor MPP+” value at OCT1 wild-type is given as “statistically significantly reduced uptake”. Also, on mutant human OCT1 D474N, the “uptake of prostaglandins by OCT1 D474N in comparison to wild-type” value is reported as “reduced to the level of the control cell line; also recorded: almost abolished”.

The term Km denotes the substrate concentration at which the rate is half of its maximum. Regarding `N=C(N)c1ccc(OCCCCCOc2ccc(C(=N)N)cc2)cc1` [Pentamidine, pentamidine], in the series with OCT1, the Km was 36.4 µM and the intrinsic clearance is given as 4.3 µL/mg protein/min.

As for `COc1cc(Cc2cnc(N)nc2N)cc(OC)c1OC` [Trimethoprim, trimethoprim], the “fraction eliminated via the kidneys” value in series [1] was “about 75%”.

`N[C@@H](Cc1ccc(O)c(O)c1)C(=O)O` [Levodopa, levodopa]: the microsomal CLint in series [2] came to 54.4 µL/min/mg. In series [3], the Km was found to be 380 µM and the Vmax is given as 20,681 pmol/mg protein/min.

`CCCCC[C@H](O)/C=C/[C@@H]1[C@@H](C/C=C\CCCC(=O)O)[C@@H](O)C[C@H]1O` [Prostaglandin F2α, prostaglandin F2α]: the Km on OCT1 (wild-type, OCT1*1) was found to be 719 µM. Further, the “uptake by OCT1 wild-type with the inhibitor MPP+” value on OCT1 wild-type is recorded as “not statistically significant”. For the same molecule, the “uptake of prostaglandins by OCT1 D474N in comparison to wild-type” value on mutant human OCT1 D474N is recorded as “reduced to the level of the control cell line”.
